The source of these data is paper PMC9945408 (Food Chemistry: X, 2023).

Each structure is given as a SMILES string.

The target in the first experiment is T1, indoleamine 2,3-dioxygenase 1 (IDO1) (Homo sapiens, UniProt P14902). In words: % inhibition at […], capillary electrophoresis enzyme assay. Format: biochemical.
T1 sequence (P14902 whole entry): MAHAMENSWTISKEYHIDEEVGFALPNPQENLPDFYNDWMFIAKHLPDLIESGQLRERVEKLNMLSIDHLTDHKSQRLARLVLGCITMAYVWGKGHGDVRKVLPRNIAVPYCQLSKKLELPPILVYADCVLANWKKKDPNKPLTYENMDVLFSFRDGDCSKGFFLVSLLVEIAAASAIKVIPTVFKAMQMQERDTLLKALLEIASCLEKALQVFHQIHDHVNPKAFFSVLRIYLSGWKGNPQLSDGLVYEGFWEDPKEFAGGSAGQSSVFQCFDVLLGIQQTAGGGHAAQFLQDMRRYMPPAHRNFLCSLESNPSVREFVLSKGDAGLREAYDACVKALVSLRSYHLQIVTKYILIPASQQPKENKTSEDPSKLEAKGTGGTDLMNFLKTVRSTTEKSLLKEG
On to `O=C(/C=C/c1ccc(O)c(O)c1)O[C@@H]1C[C@@](O)(C(=O)O)C[C@@H](O)[C@@H]1O` [compound 1, Neochlorogenic acid], for which the inhibition at 100 µM was found to be 10.9%.

Turning to `O=C(/C=C/c1ccc(O)c(O)c1)O[C@H]1[C@H](O)C[C@](O)(C(=O)O)C[C@H]1O` [compound 3, Cryptochlorogenic acid], at 100 µM the inhibition was 11.8%.

As to `COc1cc(/C=C/C(=O)O[C@@H]2C[C@@](O)(C(=O)O)C[C@@H](O)[C@@H]2O)ccc1O` [compound 4, 3-O-Feruloylquinic acid], the inhibition at 100 µM is 16.4%.

In turn, `COc1cc(/C=C/C(=O)O[C@@H]2C[C@](O)(C(=O)O)C[C@@H](O)[C@H]2O)ccc1O` [compound 6, 5-O-Feruloylquinic acid] returned an inhibition at 100 µM of 12.7%.

On to `O=C(/C=C/c1ccc(O)c(O)c1)O[C@H]1[C@H](O)C[C@](O)(C(=O)O)C[C@H]1OC(=O)/C=C/c1ccc(O)c(O)c1` [compound 8, Isochlorogenic acid B], for which the inhibition at 100 µM was determined as 19.1%.

For `O=C(/C=C/c1ccc(O)c(O)c1)O[C@@H]1[C@H](O)C[C@@](O)(C(=O)O)C[C@H]1OC(=O)/C=C/c1ccc(O)c(O)c1` [compound 10, Isochlorogenic acid C], the inhibition at 100 µM is 10.9%.

Another experiment has as its target T1, indoleamine 2,3-dioxygenase 1 (IDO1). In words: capillary electrophoresis enzyme assay. It is filed as biochemical.
`O=C(/C=C/c1ccc(O)c(O)c1)O[C@@H]1C[C@](O)(C(=O)O)C[C@@H](O)[C@H]1O` [compound 2, Chlorogenic acid] returned an IC50 of 308 µM.

Turning to `COc1cc(/C=C/C(=O)O)ccc1O` [compound 7, Ferulic acid], the IC50 turned out to be 114 µM.

In general, inhibition refers to how much of the control response was suppressed. By IC50 is commonly meant the concentration needed to halve the response being measured. The low end stands for higher potency, the high end for lower potency.
